In patent US20240109865A1, “INDAZOLE COMPOUNDS AS KINASE INHIBITORS” (TYRA BIOSCIENCES, INC., priority 2020, published 2024) one finds Kd data, which are given here for 14 compounds.

Holding throughout (assay): Kinase assay, binding constants (Kd), kinase-tagged T7 phage, qPCR
One experiment has as its target FGFR1 (Homo sapiens (Human), UniProt P11362). The essentials: (§1)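 Kinase-tagged T7 phage (grown in BL21-derived E. coli) competed with test compound for immobilized biotinylated ligand on streptavidin beads. Kds came from an 11-point 3-fold dilution series at 0.9% final DMSO. Bound kinase was eluted with non-biotinylated ligand and quantified by qPCR, with Hill slope fixed at −1.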

Another experiment has as its target FGFR2 (Homo sapiens (Human), UniProt P21802). The essentials: as §1
In another experiment the target is FGFR3 (Homo sapiens (Human), UniProt P22607). The essentials:
as §1

Another experiment has as its target FGFR3 (V555M) (Homo sapiens (Human), UniProt P22607, V555M). The following applies: V555M mutant. The method, boiled down: as §1
The target in the next experiment is FGFR4 (Homo sapiens (Human), UniProt P22455). The essentials:
as §1

Structures are written as SMILES. A value given as a limit tells only on which side of the number the result lay.

FGFR3, sequence (P22607 23-806): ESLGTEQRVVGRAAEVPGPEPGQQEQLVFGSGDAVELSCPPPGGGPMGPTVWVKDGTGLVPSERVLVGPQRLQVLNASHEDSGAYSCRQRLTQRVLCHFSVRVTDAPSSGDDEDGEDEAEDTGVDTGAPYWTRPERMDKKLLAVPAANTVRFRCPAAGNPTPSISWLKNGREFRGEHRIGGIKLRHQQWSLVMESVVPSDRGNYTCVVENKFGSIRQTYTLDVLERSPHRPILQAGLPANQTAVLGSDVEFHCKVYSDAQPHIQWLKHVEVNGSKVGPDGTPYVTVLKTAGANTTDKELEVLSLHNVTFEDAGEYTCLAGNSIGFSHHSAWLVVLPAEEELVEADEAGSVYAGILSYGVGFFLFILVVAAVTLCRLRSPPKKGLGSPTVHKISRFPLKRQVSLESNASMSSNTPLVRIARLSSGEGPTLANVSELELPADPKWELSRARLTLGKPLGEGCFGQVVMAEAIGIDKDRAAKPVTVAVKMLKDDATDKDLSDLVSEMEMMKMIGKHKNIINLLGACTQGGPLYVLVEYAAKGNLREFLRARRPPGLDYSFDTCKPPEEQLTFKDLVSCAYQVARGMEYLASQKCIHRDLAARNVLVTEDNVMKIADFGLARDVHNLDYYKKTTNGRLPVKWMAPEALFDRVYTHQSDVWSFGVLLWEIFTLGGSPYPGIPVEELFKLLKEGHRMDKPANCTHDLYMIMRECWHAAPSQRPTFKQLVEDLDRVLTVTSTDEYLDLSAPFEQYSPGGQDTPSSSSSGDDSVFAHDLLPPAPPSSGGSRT
FGFR3 (V555M), sequence (P22607 23-806 V555M): as the sequence (P22607 23-806) above, with V533M counted along it
FGFR4, sequence (P22455 22-802): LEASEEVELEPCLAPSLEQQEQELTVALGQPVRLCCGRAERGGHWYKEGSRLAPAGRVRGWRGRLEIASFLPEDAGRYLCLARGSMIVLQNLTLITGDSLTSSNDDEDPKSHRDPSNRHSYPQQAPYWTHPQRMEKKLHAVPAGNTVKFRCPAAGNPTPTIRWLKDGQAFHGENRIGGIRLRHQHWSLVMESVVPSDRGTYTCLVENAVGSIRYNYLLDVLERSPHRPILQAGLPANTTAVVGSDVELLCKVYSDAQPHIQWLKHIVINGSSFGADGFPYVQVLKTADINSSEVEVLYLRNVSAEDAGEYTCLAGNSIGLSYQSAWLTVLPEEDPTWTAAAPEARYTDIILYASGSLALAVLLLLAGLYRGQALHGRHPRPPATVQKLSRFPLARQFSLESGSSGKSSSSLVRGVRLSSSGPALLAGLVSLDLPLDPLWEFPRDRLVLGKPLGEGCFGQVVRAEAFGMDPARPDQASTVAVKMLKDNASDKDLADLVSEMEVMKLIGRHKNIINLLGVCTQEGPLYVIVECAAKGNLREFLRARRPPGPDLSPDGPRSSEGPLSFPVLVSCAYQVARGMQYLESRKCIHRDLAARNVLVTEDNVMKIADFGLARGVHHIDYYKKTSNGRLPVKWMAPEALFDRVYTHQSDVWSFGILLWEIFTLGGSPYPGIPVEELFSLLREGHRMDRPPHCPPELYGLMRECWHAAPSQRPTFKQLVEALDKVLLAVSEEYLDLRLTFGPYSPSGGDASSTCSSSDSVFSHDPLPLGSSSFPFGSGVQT
FGFR1, sequence (P11362 22-822): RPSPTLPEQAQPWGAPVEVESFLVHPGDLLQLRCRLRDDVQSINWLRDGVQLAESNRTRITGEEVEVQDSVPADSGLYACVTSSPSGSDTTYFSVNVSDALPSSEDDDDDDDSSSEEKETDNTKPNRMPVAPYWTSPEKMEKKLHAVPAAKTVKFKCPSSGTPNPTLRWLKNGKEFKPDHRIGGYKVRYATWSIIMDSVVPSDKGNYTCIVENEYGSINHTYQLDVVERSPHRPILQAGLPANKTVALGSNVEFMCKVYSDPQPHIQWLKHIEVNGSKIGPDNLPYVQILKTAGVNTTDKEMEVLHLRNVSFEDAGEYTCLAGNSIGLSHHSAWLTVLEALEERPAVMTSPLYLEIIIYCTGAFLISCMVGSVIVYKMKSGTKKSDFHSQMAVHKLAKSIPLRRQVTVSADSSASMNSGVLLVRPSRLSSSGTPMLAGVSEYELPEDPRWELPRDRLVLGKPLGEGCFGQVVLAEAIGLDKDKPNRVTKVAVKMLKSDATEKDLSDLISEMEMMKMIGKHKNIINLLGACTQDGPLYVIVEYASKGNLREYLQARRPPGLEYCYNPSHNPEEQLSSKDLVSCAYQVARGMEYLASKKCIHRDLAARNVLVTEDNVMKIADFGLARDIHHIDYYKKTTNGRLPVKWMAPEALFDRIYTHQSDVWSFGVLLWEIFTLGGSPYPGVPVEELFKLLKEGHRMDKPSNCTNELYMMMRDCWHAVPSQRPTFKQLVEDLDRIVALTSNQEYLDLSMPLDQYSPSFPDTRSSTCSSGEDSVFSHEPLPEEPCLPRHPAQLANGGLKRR
FGFR2, sequence (P21802 22-821): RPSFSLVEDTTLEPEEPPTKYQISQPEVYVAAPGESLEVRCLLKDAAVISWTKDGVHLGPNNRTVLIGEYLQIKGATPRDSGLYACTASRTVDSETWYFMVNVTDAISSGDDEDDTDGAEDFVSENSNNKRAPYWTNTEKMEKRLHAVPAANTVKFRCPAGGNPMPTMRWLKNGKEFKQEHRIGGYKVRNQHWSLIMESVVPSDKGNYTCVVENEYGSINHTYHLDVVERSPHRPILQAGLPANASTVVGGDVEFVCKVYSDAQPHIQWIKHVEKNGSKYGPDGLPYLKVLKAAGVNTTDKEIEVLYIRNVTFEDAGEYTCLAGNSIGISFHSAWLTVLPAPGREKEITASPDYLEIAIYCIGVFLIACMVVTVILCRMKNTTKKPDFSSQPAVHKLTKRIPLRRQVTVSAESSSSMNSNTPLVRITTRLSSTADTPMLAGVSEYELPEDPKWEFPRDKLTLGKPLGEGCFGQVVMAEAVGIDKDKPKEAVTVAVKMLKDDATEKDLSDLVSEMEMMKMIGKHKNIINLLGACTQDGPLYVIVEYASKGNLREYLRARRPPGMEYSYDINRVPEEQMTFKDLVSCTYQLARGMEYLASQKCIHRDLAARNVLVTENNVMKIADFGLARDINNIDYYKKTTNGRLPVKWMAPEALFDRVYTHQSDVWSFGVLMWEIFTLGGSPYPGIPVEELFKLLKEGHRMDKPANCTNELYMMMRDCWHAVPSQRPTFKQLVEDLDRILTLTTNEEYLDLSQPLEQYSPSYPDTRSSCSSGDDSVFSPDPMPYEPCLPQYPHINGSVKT

As for `C[C@@H](Oc1cc2c(-c3cnc(N4CC5(C4)CN(S(C)(=O)=O)C5)c(C#N)c3)n[nH]c2cc1Cl)c1c(Cl)cncc1Cl` [Example 359, (R)-5-(6-chloro-5-(1-(3,5-dichloropyridin-4-yl)ethoxy)-1H-indazol-3-yl)-2-(6-(methylsulfonyl)-2,6-diazaspiro[3.3]heptan-2-yl)nicotinonitrile], the Kd (commonly the constant that tells how readily two partners part at equilibrium) on FGFR1 is 20 to 100 nM; at FGFR2, 20 to 100 nM; on FGFR3 it was 1 to 20 nM; on FGFR3 (V555M) it was greater than 300 nM; at FGFR4, 1 to 20 nM.

As to `COc1cc2[nH]nc(-c3cnc(N4CCC4)c(C#N)c3)c2cc1O[C@H](C)c1c(Cl)cnnc1Cl` [Example 360, (R)-2-(azetidin-1-yl)-5-(5-(1-(3,5-dichloropyridazin-4-yl)ethoxy)-6-methoxy-1H-indazol-3-yl)nicotinonitrile], the Kd on FGFR1 was 100 to 300 nM; on FGFR2, 20 to 100 nM; at FGFR3, 20 to 100 nM; on FGFR3 (V555M), greater than 300 nM; at FGFR4, 1 to 20 nM.

Consider `C[C@@H](Oc1ccc2[nH]nc(-c3cnc(N4CCC4)c(C#N)c3)c2c1)c1c(Cl)cnnc1Cl` [Example 361, (R)-2-(azetidin-1-yl)-5-(5-(1-(3,5-dichloropyridazin-4-yl)ethoxy)-1H-indazol-3-yl)nicotinonitrile], for which the Kd on FGFR1 is greater than 300 nM; on FGFR2 it was 100 to 300 nM; on FGFR3, 100 to 300 nM; on FGFR3 (V555M), 100 to 300 nM; at FGFR4, 1 to 20 nM.

Regarding `C[C@@H](Oc1cc2c(-c3cnc(N4CC5(CCCS(=O)(=O)C5)C4)c(C#N)c3)n[nH]c2cc1F)c1c(Cl)cncc1Cl` [Example 362], the Kd on FGFR1 is 20 to 100 nM; at FGFR2, 100 to 300 nM; at FGFR3 it was 1 to 20 nM; on FGFR3 (V555M), 1 to 20 nM; on FGFR4, 1 to 20 nM.

In the case of `C[C@@H](Oc1ccc2[nH]nc(-c3cnc(N4CCC4CN(C)C)c(C#N)c3)c2c1)c1c(Cl)cncc1Cl` (stereo partly drawn) [Example 363, 5-(5-((R)-1-(3,5-dichloropyridin-4-yl)ethoxy)-1H-indazol-3-yl)-2-(2-((dimethylamino)methyl)azetidin-1-yl)nicotinonitrile], the Kd on FGFR1, on FGFR2, at FGFR3, on FGFR3 (V555M) and at FGFR4 was greater than 300 nM each time.

As to `C[C@@H](Oc1cc2c(-c3cnc(N4CC(C)(C)C4)c(C#N)c3)n[nH]c2cc1Cl)c1c(Cl)cncc1Cl` [Example 364, (R)-5-(6-chloro-5-(1-(3,5-dichloropyridin-4-yl)ethoxy)-1H-indazol-3-yl)-2-(3,3-dimethylazetidin-1-yl)nicotinonitrile], the equilibrium dissociation constant (Kd) on FGFR1 lay within 20 to 100 nM; at FGFR2 it was 1 to 20 nM; on FGFR3, 1 to 20 nM; on FGFR3 (V555M), 1 to 20 nM; on FGFR4 it was 20 to 100 nM.

On to `C[C@@H](Oc1cc2c(-c3cnc(N4CC[C@@H]4C)c(C#N)c3)n[nH]c2cc1Cl)c1c(Cl)cncc1Cl` [Example 365, 5-(6-chloro-5-((R)-1-(3,5-dichloropyridin-4-yl)ethoxy)-1H-indazol-3-yl)-2-((S)-2-methylazetidin-1-yl)nicotinonitrile], for which the Kd on FGFR1 was greater than 300 nM; on FGFR2, greater than 300 nM; at FGFR3, 100 to 300 nM; at FGFR3 (V555M), 100 to 300 nM; on FGFR4, 20 to 100 nM.

For `C[C@@H](Oc1cc2c(-c3cnc(N4CCC4)c(CN(C)C)c3)n[nH]c2cc1Cl)c1c(Cl)cncc1Cl` [Example 366, (R)-1-(2-(azetidin-1-yl)-5-(6-chloro-5-(1-(3,5-dichloropyridin-4-yl)ethoxy)-1H-indazol-3-yl)pyridin-3-yl)-N,N-dimethylmethanamine], the Kd was 100 to 300 nM at FGFR1; greater than 300 nM on FGFR2; 20 to 100 nM at FGFR3; 20 to 100 nM on FGFR3 (V555M); 1 to 20 nM at FGFR4.

In the case of `COc1cc2[nH]nc(-c3cnc(N4CCC4)c(S(C)(=O)=O)c3)c2cc1O[C@H](C)c1c(Cl)cncc1Cl` [Example 367, (R)-3-(6-(azetidin-1-yl)-5-(methylsulfonyl)pyridin-3-yl)-5-(1-(3,5-dichloropyridin-4-yl)ethoxy)-6-methoxy-1H-indazole], the Kd is greater than 300 nM on FGFR1; greater than 300 nM on FGFR2; 100 to 300 nM at FGFR3; 20 to 100 nM at FGFR3 (V555M); 20 to 100 nM at FGFR4.

For the compound `CNCc1cc(-c2n[nH]c3ccc(O[C@H](C)c4c(Cl)cncc4Cl)cc23)cnc1N1CC2(C1)CN(S(C)(=O)=O)C2` [Example 368, (R)-1-(5-(5-(1-(3,5-dichloropyridin-4-yl)ethoxy)-1H-indazol-3-yl)-2-(6-(methylsulfonyl)-2,6-diazaspiro[3.3]heptan-2-yl)pyridin-3-yl)-N-methylmethanamine], the Kd on FGFR1 is greater than 300 nM; on FGFR2 it was greater than 300 nM; at FGFR3 it was greater than 300 nM; at FGFR3 (V555M) it was 100 to 300 nM; on FGFR4, 100 to 300 nM.

Consider `CNCc1cc(-c2n[nH]c3cc(OC)c(O[C@H](C)c4c(Cl)cncc4Cl)cc23)cnc1N1CC2(C1)CN(S(C)(=O)=O)C2` [Example 369, (R)-1-(5-(5-(1-(3,5-dichloropyridin-4-yl)ethoxy)-6-methoxy-1H-indazol-3-yl)-2-(6-(methylsulfonyl)-2,6-diazaspiro[3.3]heptan-2-yl)pyridin-3-yl)-N-methylmethanamine], for which the Kd on FGFR1 was greater than 300 nM; on FGFR2 it was greater than 300 nM; at FGFR3 it was 20 to 100 nM; at FGFR3 (V555M) it was 20 to 100 nM; on FGFR4, 20 to 100 nM.

On to `C[C@@H](Oc1cc2c(-c3cnc(N4CCC4)c(S(C)(=O)=O)c3)n[nH]c2cc1Cl)c1c(Cl)cncc1Cl` [Example 370, (R)-3-(6-(azetidin-1-yl)-5-(methylsulfonyl)pyridin-3-yl)-6-chloro-5-(1-(3,5-dichloropyridin-4-yl)ethoxy)-1H-indazole], for which the equilibrium dissociation constant (Kd) on FGFR1 was greater than 300 nM; on FGFR2 it was greater than 300 nM; on FGFR3 it was 20 to 100 nM; on FGFR3 (V555M), 20 to 100 nM; at FGFR4, 20 to 100 nM.

As for `C[C@@H](Oc1cc2c(-c3cnc(N4CC(C)(C)C4)c(CN(C)C)c3)n[nH]c2cc1Cl)c1c(Cl)cncc1Cl` [Example 371, (R)-1-(5-(6-chloro-5-(1-(3,5-dichloropyridin-4-yl)ethoxy)-1H-indazol-3-yl)-2-(3,3-dimethylazetidin-1-yl)pyridin-3-yl)-N,N-dimethylmethanamine], the Kd on FGFR1 is greater than 300 nM; at FGFR2, greater than 300 nM; at FGFR3 it was greater than 300 nM; at FGFR3 (V555M) it was greater than 300 nM; at FGFR4 it was 100 to 300 nM.

Consider `COc1cc2[nH]nc(-c3cnc(N4CC[C@H]4C)c(S(C)(=O)=O)c3)c2cc1O[C@H](C)c1c(Cl)cncc1Cl` [Example 372, 5-((R)-1-(3,5-dichloropyridin-4-yl)ethoxy)-6-methoxy-3-(6-((R)-2-methylazetidin-1-yl)-5-(methylsulfonyl)pyridin-3-yl)-1H-indazole], for which the Kd at FGFR1 lay in the range of 100 to 300 nM; on FGFR2, 100 to 300 nM; at FGFR3 it was 20 to 100 nM; on FGFR3 (V555M) it was 1 to 20 nM; on FGFR4, 1 to 20 nM.
